Measurements: patent publication US20130289070A1, “Use of Levocabastine for Modulating Generation of Pro-Inflammatory Cytokines” (Bausch & Lomb Incorporated, priority 2007, published 2013)

System: EoL-1 (human eosinophilic leukaemia cell line) cells
Experiment: TNF-α-induced cytokine release, non-differentiated EoL-1 cells (NO PMA) (Luminex)
Format: cell-based
Design: key to Fractalkine (NO PMA), p of decrement / IL-1α (NO PMA), p of decrement / IL-1β (NO PMA), p of decrement / IL-1ra (NO PMA), p of decrement / IL-5 (NO PMA), p of decrement / IL-7 (NO PMA), p of decrement / IL-8 (NO PMA), p of decrement / IP-10 (NO PMA), p of decrement / MCP-1 (NO PMA), p of decrement / MIP-1β (NO PMA), p of decrement / VEGF (NO PMA), p of decrement: ns = non significant
Description: EoL-1 (human eosinophilic leukaemia cell line) cells (Saito et al., 1985; Mayumi, 1992) were maintained in RPMI-1640 medium with L-glutamine supplemented with 10% (v/v) FBS at 37° C. in a humidified atmosphere with 5% CO2. Where indicated, 24 h before the experiment 25 ng/mL PMA ((phorbol 12-myristate 13-acetate, purchased from Sigma Aldrich) was added to the medium to induce eosinophil granulation and differentiation (Ohtsu et al., 1993; Zimmermann et al., 2000).
Half-million cells were aliquoted per point in a 24 well plate; each experiment was performed in triplicate and carried out in parallel with eosinophils differentiated and non differentiated with PMA (25 ng/mL, 24 h). Cells were suspended in low serum medium (RPMI-1640, 0.1% (v/v) FBS). TNF-α was used to induce cytokine secretion as previously described by Steube et al. (2000), and the net release was obtained by comparison to the basal (non-TNF-α treated). In the first experiment we evaluated the concentration and time relation between TNF-α stimulation and cytokine release. Therefore, 5, 10, and 25 ng/mL of TNF-α was administered to the cells at 0, ½, 1, 2, 3, 6, 12 and 24 h (data not shown). An aliquot of 150 μL of supernate was collected for cytokines' analysis. […] Differentiated and non-differentiated EoL-1 cells were exposed from 0.1 to 2.3 mM levocabastine ([…]Levocabastine 0.05% solution eye drops containing cyclodextrins, without benzalkonium chloride), and aliquots of the supernates were collected after 12 and 24 h. The content of cytokines at time zero was estimated by treating the cells with 400 nM calcimycin (A-23187), which is a cytolytic agent that frees all the mediators from the cytoplasmic compartment. In addition, for each experiment we tested the effect of the vehicle, which was added to the wells in a concentration equal to the maximum amount used for drug dilution.
Samples (supernates 12 and 24 h) in triplicate were analyzed using Luminex 200™ (Luminex, Austin, Tex.) and Beadview software v1.0 (Upstate Cell Signaling Solutions, Temecula, Calif.).
All data are presented as mean±SEM for the indicated number of experiments. Statistical significance was determined by Newman-Keuls test after ANOVA using GraphPad Prism (version 3.0; GraphPad Software Inc., San Diego, Calif., USA). P-values<0.05 were considered to be significant.

[1] = 24 h, Levocabastine 2 mM vs TNF-α
[2] = 24 h, TNF-α 5 ng + Levocabastine 2 mM vs TNF-α
[3] = 24 h, TNF-α 10 ng + Levocabastine 2 mM vs TNF-α
[4] = 24 h, TNF-α 20 ng + Levocabastine 2 mM vs TNF-α
[5] = 24 h, TNF-α 5, 10, 20 ng + Levocabastine 2 mM vs TNF-α
[6] = 24 h, VCAM-1 + Levocabastine 2 mM vs VCAM-1
[7] = non-differentiated EoL-1 cells, in the presence of VCAM-1 or fibronectin

C[C@@H]1CN([C@H]2CC[C@](C#N)(c3ccc(F)cc3)CC2)CC[C@]1(C(=O)O)c1ccccc1 [Levocabastine, levocabastine]
IL-8 (NO PMA), p of decrement [1]: ns
IL-10 (NO PMA), p of decrement [1]: ns
IL-12p40 (NO PMA), p of decrement [1]: P < 0.01
IP-10 (NO PMA), p of decrement [1]: ns
MCP-1 (NO PMA), p of decrement [1]: Increase
MIP-1α (NO PMA), p of decrement [1]: Increase
MIP-1β (NO PMA), p of decrement [1]: ns
RANTES (NO PMA), p of decrement [1]: Increase
TGF-α (NO PMA), p of decrement [1]: ns
VEGF (NO PMA), p of decrement [1]: P < 0.001
GM-CSF (NO PMA), p of decrement [2]: ns
IL-1ra (NO PMA), p of decrement [2]: P < 0.01
IL-1β (NO PMA), p of decrement [2]: ns
IL-5 (NO PMA), p of decrement [2]: ns
IL-6 (NO PMA), p of decrement [2]: ns
IL-7 (NO PMA), p of decrement [2]: ns
IL-8 (NO PMA), p of decrement [2]: ns
IL-10 (NO PMA), p of decrement [2]: ns
IL-12p40 (NO PMA), p of decrement [2]: P < 0.001
MCP-1 (NO PMA), p of decrement [2]: ns
TGF-α (NO PMA), p of decrement [2]: P < 0.05
VEGF (NO PMA), p of decrement [2]: P < 0.001
GM-CSF (NO PMA), p of decrement [3]: ns
IL-1ra (NO PMA), p of decrement [3]: P < 0.05
IL-1β (NO PMA), p of decrement [3]: ns
IL-5 (NO PMA), p of decrement [3]: ns
IL-6 (NO PMA), p of decrement [3]: ns
IL-7 (NO PMA), p of decrement [3]: ns
IL-8 (NO PMA), p of decrement [3]: ns
IL-10 (NO PMA), p of decrement [3]: ns
IL-12p40 (NO PMA), p of decrement [3]: P < 0.001
MCP-1 (NO PMA), p of decrement [3]: ns
TGF-α (NO PMA), p of decrement [3]: ns
VEGF (NO PMA), p of decrement [3]: P < 0.001
GM-CSF (NO PMA), p of decrement [4]: ns
IL-1ra (NO PMA), p of decrement [4]: P < 0.01
IL-1β (NO PMA), p of decrement [4]: ns
IL-5 (NO PMA), p of decrement [4]: ns
IL-6 (NO PMA), p of decrement [4]: ns
IL-7 (NO PMA), p of decrement [4]: ns
IL-8 (NO PMA), p of decrement [4]: ns
IL-10 (NO PMA), p of decrement [4]: ns
IL-12p40 (NO PMA), p of decrement [4]: P < 0.001
MCP-1 (NO PMA), p of decrement [4]: ns
TGF-α (NO PMA), p of decrement [4]: P < 0.05
VEGF (NO PMA), p of decrement [4]: P < 0.001
Fractalkine (NO PMA), p of decrement [5]: increase of cytokine secretion
G-CSF (NO PMA), p of decrement [5]: increase of cytokine secretion
IL-1α (NO PMA), p of decrement [5]: increase of cytokine secretion
IP-10 (NO PMA), p of decrement [5]: increase of cytokine secretion
MIP-1α (NO PMA), p of decrement [5]: increase of cytokine secretion
MP-1β (NO PMA), p of decrement [5]: increase of cytokine secretion
RANTES (NO PMA), p of decrement [5]: increase of cytokine secretion
Fractalkine (NO PMA), p of decrement (24 h, TNF-α vs Lev 0.1 mM): ns
IL-1ra (NO PMA), p of decrement (24 h, TNF-α vs Lev 0.1 mM): ns
IL-1α (NO PMA), p of decrement (24 h, TNF-α vs Lev 0.1 mM): ns
IL-1β (NO PMA), p of decrement (24 h, TNF-α vs Lev 0.1 mM): ns
IL-5 (NO PMA), p of decrement (24 h, TNF-α vs Lev 0.1 mM): ns
IL-7 (NO PMA), p of decrement (24 h, TNF-α vs Lev 0.1 mM): ns
IL-8 (NO PMA), p of decrement (24 h, TNF-α vs Lev 0.1 mM): ns
IP-10 (NO PMA), p of decrement (24 h, TNF-α vs Lev 0.1 mM): p < 0.05
MCP-1 (NO PMA), p of decrement (24 h, TNF-α vs Lev 0.1 mM): ns
MIP-1β (NO PMA), p of decrement (24 h, TNF-α vs Lev 0.1 mM): ns
VEGF (NO PMA), p of decrement (24 h, TNF-α vs Lev 0.1 mM): ns
Fractalkine (NO PMA), p of decrement (24 h, TNF-α vs Lev 0.5 mM): ns
IL-1ra (NO PMA), p of decrement (24 h, TNF-α vs Lev 0.5 mM): ns
IL-1α (NO PMA), p of decrement (24 h, TNF-α vs Lev 0.5 mM): ns
IL-1β (NO PMA), p of decrement (24 h, TNF-α vs Lev 0.5 mM): ns
IL-5 (NO PMA), p of decrement (24 h, TNF-α vs Lev 0.5 mM): ns
IL-7 (NO PMA), p of decrement (24 h, TNF-α vs Lev 0.5 mM): ns
IL-8 (NO PMA), p of decrement (24 h, TNF-α vs Lev 0.5 mM): ns
IP-10 (NO PMA), p of decrement (24 h, TNF-α vs Lev 0.5 mM): p < 0.05
MCP-1 (NO PMA), p of decrement (24 h, TNF-α vs Lev 0.5 mM): ns
MIP-1β (NO PMA), p of decrement (24 h, TNF-α vs Lev 0.5 mM): ns
VEGF (NO PMA), p of decrement (24 h, TNF-α vs Lev 0.5 mM): ns
Fractalkine (NO PMA), p of decrement (24 h, TNF-α vs Lev 1.0 mM): ns
IL-1ra (NO PMA), p of decrement (24 h, TNF-α vs Lev 1.0 mM): ns
IL-1α (NO PMA), p of decrement (24 h, TNF-α vs Lev 1.0 mM): ns
IL-1β (NO PMA), p of decrement (24 h, TNF-α vs Lev 1.0 mM): ns
IL-5 (NO PMA), p of decrement (24 h, TNF-α vs Lev 1.0 mM): ns
IL-7 (NO PMA), p of decrement (24 h, TNF-α vs Lev 1.0 mM): ns
IL-8 (NO PMA), p of decrement (24 h, TNF-α vs Lev 1.0 mM): ns
IP-10 (NO PMA), p of decrement (24 h, TNF-α vs Lev 1.0 mM): ns
MCP-1 (NO PMA), p of decrement (24 h, TNF-α vs Lev 1.0 mM): ns
MIP-1β (NO PMA), p of decrement (24 h, TNF-α vs Lev 1.0 mM): ns
VEGF (NO PMA), p of decrement (24 h, TNF-α vs Lev 1.0 mM): ns
Fractalkine (NO PMA), p of decrement (24 h, TNF-α vs Lev 2.3 mM): ns
IL-1ra (NO PMA), p of decrement (24 h, TNF-α vs Lev 2.3 mM): ns
IL-1α (NO PMA), p of decrement (24 h, TNF-α vs Lev 2.3 mM): ns
IL-1β (NO PMA), p of decrement (24 h, TNF-α vs Lev 2.3 mM): ns
IL-5 (NO PMA), p of decrement (24 h, TNF-α vs Lev 2.3 mM): ns
IL-7 (NO PMA), p of decrement (24 h, TNF-α vs Lev 2.3 mM): ns
IL-8 (NO PMA), p of decrement (24 h, TNF-α vs Lev 2.3 mM): ns
IP-10 (NO PMA), p of decrement (24 h, TNF-α vs Lev 2.3 mM): ns
MCP-1 (NO PMA), p of decrement (24 h, TNF-α vs Lev 2.3 mM): ns
MIP-1β (NO PMA), p of decrement (24 h, TNF-α vs Lev 2.3 mM): ns
VEGF (NO PMA), p of decrement (24 h, TNF-α vs Lev 2.3 mM): p < 0.01
MIP-1α (NO PMA), p of increase (24 h, TNF-α vs Lev 0.1-2.3 mM): concentration dependent way p < 0.001
RANTES (NO PMA), p of increase (24 h, TNF-α vs Lev 0.1-2.3 mM): concentration dependent way p < 0.001
Fractalkine (NO PMA), p of decrement [6]: ns
G-CSF (NO PMA), p of decrement [6]: ns
GM-CSF (NO PMA), p of decrement [6]: ns
IL-1ra (NO PMA), p of decrement [6]: P < 0.01
IL-1α (NO PMA), p of decrement [6]: ns
IL-1β (NO PMA), p of decrement [6]: ns
IL-5 (NO PMA), p of decrement [6]: ns
IL-6 (NO PMA), p of decrement [6]: P < 0.001
IL-7 (NO PMA), p of decrement [6]: ns
IL-8 (NO PMA), p of decrement [6]: P < 0.001
IL-10 (NO PMA), p of decrement [6]: ns
IL-12p40 (NO PMA), p of decrement [6]: ns
IP-10 (NO PMA), p of decrement [6]: ns
MCP-1 (NO PMA), p of decrement [6]: ns
MIP-1α (NO PMA), p of decrement [6]: Increase
MIP-1β (NO PMA), p of decrement [6]: ns
RANTES (NO PMA), p of decrement [6]: Increase
TGF-α (NO PMA), p of decrement [6]: ns
VEGF (NO PMA), p of decrement [6]: P < 0.001
release of VEGF (FIG. 4 Panel B) (Naïve EoL-1 cells challenged with TNF-α, levocabastine with cyclodextrin pre-treatment): reduced release
IL-6 release (FIG. 13) [7]: inhibited
release, cytokine not named (FIG. 12) [7]: inhibited
